≈ marks a conversion by molar mass, not a printed value.
Assays:
[1] = high concentration product, e.g. 1,000,000 units procaine penicillin G and 1,000 milligrams dihydrostreptomycin; in some cases; cited from earlier work
[2] = residual penicillin G in the udder of a treated dry cow over 30 days; assay type: in vivo; settings: for Residual Procaine Penicillin G In The Udder: dosage of 500,000 u; for Residual Benzathine Penicillin G In The Udder: 500,000 units of the composition of Example 1
[3] = cited from earlier work

| SMILES | desired residual effects remain in the udder of a treated cow [1] | dissipation of procaine penicillin ([2]; after the 8th day) | initial amount of procaine penicillin remaining, compared with benzathine penicillin G ([2]; at the 8th day) | amount of procaine penicillin remaining relative to remaining benzathine penicillin G ([2]; by the tenth day) | Residual Procaine Penicillin G In The Udder ([2]; day 8 past treatment) [u/ml.] | Residual Procaine Penicillin G In The Udder ([2]; day 10 past treatment) [u/ml.] | Residual Procaine Penicillin G In The Udder ([2]; day 12 past treatment) | Residual Procaine Penicillin G In The Udder ([2]; day 16 past treatment, not detectable) | Residual Procaine Penicillin G In The Udder ([2]; day 23 past treatment, not detectable) | Residual Procaine Penicillin G In The Udder ([2]; day 30 past treatment, not detectable) | solubility (in words) ([3]; compared with limited solubility penicillin) | Residual Benzathine Penicillin G In The Udder ([2]; day 8 past treatment) [u/ml.] | Residual Benzathine Penicillin G In The Udder ([2]; day 10 past treatment) [u/ml.] | Residual Benzathine Penicillin G In The Udder ([2]; day 12 past treatment) [u/ml.] | Residual Benzathine Penicillin G In The Udder ([2]; day 16 past treatment) [u/ml.] | Residual Benzathine Penicillin G In The Udder ([2]; day 23 past treatment) [u/ml.] | Residual Benzathine Penicillin G In The Udder ([2]; day 30 past treatment) [u/ml.] | amount remaining for effectively treating mastitis, compared with procaine penicillin ([2]; over the extended 30 day treatment) | solubility in water ([3]; water) [µg/mL] |
| --- | --- | --- | --- | --- | --- | --- | --- | --- | --- | --- | --- | --- | --- | --- | --- | --- | --- | --- | --- |
| CC1(C)S[C@@H]2[C@H](NC(=O)Cc3ccccc3)C(=O)N2[C@H]1C(=O)O [Procaine Penicillin G] | only a few days | rapidly dissipated | higher | less than half | 7.68 | 1.56 | .21 u/ml. | less than 0.01 u/ml. | less than 0.01 u/ml. | less than 0.01 u/ml. | greater solubility | – | – | – | – | – | – | – | – |
| CC1(C)S[C@@H]2[C@H](NC(=O)Cc3ccccc3)C(=O)N2[C@H]1C(=O)O [Benzathine Penicillin G, N, N dibenzyl ethylene diamine di benzyl penicillinate] | – | – | – | – | – | – | – | – | – | – | – | 5.37 | 3.67 | 4 | 3.57 | 2.2 | 0.11 | substantially greater | 500 (≈ 1500 µM) |

Reference: patent publication US4172138A, “Method and composition of matter for the treatment of dry cows for mastitis” (priority 1977, dated 1979)
